Calls of active or inactive are those of the source. No cut-off for these calls is given here.
How the values were obtained:
Kidney [1] = assay: Drug level in Swiss Webster mouse kidney at 10 mg/kg, po after 3 hrs; type: ADME, organism-based; set-up: dose 10 mg/kg, route oral; conditions: in vivo
Mus musculus [2] = assay: AUC (0 to 24hrs) in Swiss Webster mouse plasma at 10 mg/kg, ip; type: ADME, organism-based; set-up: time < 24 hr, dose 10 mg/kg, route intraperitoneal; conditions: in vivo
Lung [3] = assay: Drug level in Swiss Webster mouse lung at 10 mg/kg, ip after 1 hr; type: ADME, organism-based; set-up: dose 10 mg/kg, route intraperitoneal; conditions: in vivo
[4] = Cmax in Swiss Webster mouse at 10 mg/kg, ip; type: ADME, organism-based; set-up: dose 10 mg/kg, route intraperitoneal; conditions: in vivo
Cowpox virus [5] = assay: Antiviral activity against Cowpox virus Brighton infected BALB/c mouse assessed as mortality at 10 mg/kg, po treated for 5 days after 24 hrs of viral inoculation; type: functional, Cowpox virus (Brighton Red)
[6] = Cmax in Swiss Webster mouse at 10 mg/kg, po; type: ADME, organism-based; set-up: dose 10 mg/kg, route oral; conditions: in vivo
Cowpox virus [7] = assay: Antiviral activity against Cowpox virus Brighton infected BALB/c mouse assessed as mortality at 3 mg/kg, po treated for 5 days after 72 hrs of viral inoculation; type: functional, Cowpox virus (Brighton Red)
Cowpox virus [8] = assay: Antiviral activity against Cowpox virus Brighton infected BALB/c mouse assessed as mortality at 30 mg/kg, po treated for 5 days after 72 hrs of viral inoculation; type: functional, Cowpox virus (Brighton Red)
Cowpox virus [9] = assay: Antiviral activity against Cowpox virus Brighton infected BALB/c mouse assessed as reduction of virus titer in lung at 30 mg/kg, po treated for 5 days after 24 hrs of viral inoculation; type: functional, organism-based; set-up: dose 30 mg/kg; conditions: Cowpox virus (Brighton Red)
Liver [10] = assay: Drug level in Swiss Webster mouse liver at 10 mg/kg, ip after 1 hr; type: ADME, organism-based; set-up: dose 10 mg/kg, route intraperitoneal; conditions: in vivo
[11] = Half life in Swiss Webster mouse at 10 mg/kg, ip; type: ADME, organism-based; set-up: dose 10 mg/kg, route intraperitoneal; conditions: in vivo
Vaccinia virus [12] = assay: Antiviral activity against Vaccinia virus WR infected BALB/c mouse assessed as mortality at 3 mg/kg, po treated for 5 days after 72 hrs of viral inoculation; type: functional, Orthopoxvirus vaccinia
Vaccinia virus [13] = assay: Antiviral activity against Vaccinia virus WR infected BALB/c mouse assessed as mean death day at 3 mg/kg, po treated for 5 days after 48 hrs of viral inoculation; type: functional, Orthopoxvirus vaccinia
Kidney [14] = assay: Drug level in Swiss Webster mouse kidney at 10 mg/kg, ip after 1 hr; type: ADME, organism-based; set-up: dose 10 mg/kg, route intraperitoneal; conditions: in vivo
Vaccinia virus [15] = assay: Antiviral activity against Vaccinia virus WR infected BALB/c mouse assessed as mortality at 30 mg/kg, po treated for 5 days after 24 hrs of viral inoculation; type: functional, Orthopoxvirus vaccinia
[16] = Half life in Swiss Webster mouse at 10 mg/kg, po; type: ADME, organism-based; set-up: dose 10 mg/kg, route oral; conditions: in vivo
Liver [17] = assay: Drug level in Swiss Webster mouse liver at 10 mg/kg, po after 3 hrs; type: ADME, organism-based; set-up: dose 10 mg/kg, route oral; conditions: in vivo
Cowpox virus [18] = assay: Antiviral activity against Cowpox virus Brighton infected BALB/c mouse assessed as mean death day at 30 mg/kg, po treated for 5 days after 48 hrs of viral inoculation; type: functional, Cowpox virus (Brighton Red)
Mus musculus [19] = assay: AUC (0 to 24hrs) in Swiss Webster mouse plasma at 10 mg/kg, po; type: ADME, organism-based; set-up: time < 24 hr, dose 10 mg/kg, route oral; conditions: in vivo
[20] = Tmax in Swiss Webster mouse at 10 mg/kg, po; type: ADME, organism-based; set-up: dose 10 mg/kg, route oral; conditions: in vivo
[21] = Tmax in Swiss Webster mouse at 10 mg/kg, ip; type: ADME, organism-based; set-up: dose 10 mg/kg, route intraperitoneal; conditions: in vivo
Cowpox virus [22] = assay: Antiviral activity against Cowpox virus Brighton infected BALB/c mouse assessed as mean death day at 3 mg/kg, po treated for 5 days after 72 hrs of viral inoculation; type: functional, Cowpox virus (Brighton Red)
Mus musculus [23] = assay: Plasma concentration in Swiss Webster mouse at 10 mg/kg, po after 24 hrs by liquid scintillation counting; type: ADME, organism-based; set-up: dose 10 mg/kg, route oral; conditions: in vivo
Mus musculus [24] = assay: Plasma concentration in Swiss Webster mouse at 10 mg/kg, ip after 24 hrs by liquid scintillation counting; type: ADME, organism-based; set-up: dose 10 mg/kg, route intraperitoneal; conditions: in vivo
[25] = Oral bioavailability in Swiss Webster mouse at 10 mg/kg; type: ADME, organism-based; conditions: in vivo
Lung [26] = assay: Drug level in Swiss Webster mouse lung at 10 mg/kg, po after 3 hrs; type: ADME, organism-based; set-up: dose 10 mg/kg, route oral; conditions: in vivo
Cowpox virus [27] = assay: Antiviral activity against Cowpox virus Brighton infected BALB/c mouse assessed as mortality at 30 mg/kg, po treated for 5 days after 24 hrs of viral inoculation; type: functional, Cowpox virus (Brighton Red)
Cowpox virus [28] = assay: Antiviral activity against Cowpox virus Brighton infected BALB/c mouse assessed as mortality at 10 mg/kg, po treated for 5 days after 72 hrs of viral inoculation; type: functional, Cowpox virus (Brighton Red)

SMILES | Activity (Cowpox virus [5]) [%] | Activity (Cowpox virus [7]) [%] | Activity (Cowpox virus [8]) [%] | Activity (Cowpox virus [9]) | Activity (Vaccinia virus [12]) [%] | Activity (Vaccinia virus [13]) [days] | Activity (Vaccinia virus [15]) [%] | Activity (Cowpox virus [18]) [days] | Activity (Cowpox virus [22]) [days] | Activity (Cowpox virus [27]) [%] | Activity (Cowpox virus [28]) [%] | also measured
CCCCCCCCCCCCCCCCOCCCOP(=O)(O)CO[C@H](CO)Cn1cnc2c(N)ncnc21 | 67 | 87 | 13 | inactive | 87 | 9.2 | 13 | 16.5 | 10.1 | 13 | 73 | Drug uptake (Kidney [1]): 5.1 nmol/g; AUC (Mus musculus [2]): 16.4 nmol·h/g; Drug uptake (Lung [3]): 2.8 nmol/g; Cmax [4]: 2.2 µM; Cmax [6]: 1.1 µM; Drug uptake (Liver [10]): 130 nmol/g; half-life [11]: 2.5 h; Drug uptake (Kidney [14]): 23 nmol/g; half-life [16]: 11.5 h; Drug uptake (Liver [17]): 21 nmol/g; AUC (Mus musculus [19]): 12.1 nmol·h/g; Tmax [20]: 1 h; Tmax [21]: 3 h; concentration (Mus musculus [23]): 0.03 µM; concentration (Mus musculus [24]): 0.08 µM; bioavailability [25]: 74%; Drug uptake (Lung [26]): 1.9 nmol/g
CCCCCCCCCCCCCCCCCCOCCOP(=O)(O)CO[C@H](CO)Cn1cnc2c(N)ncnc21 | 7 | 93 | 33 | inactive | 40 | 7.9 | 27 | 9.5 | 11.1 | 7 | 67 | –
